Holding throughout (experiment): relative viability (nuclei count vs DMSO), 5 days (fraction); higher = more cells survive
Compound in experiment [1]: CN(C)CC1=CC(=CC=C1)N=C(C2=CC=CC=C2)C3=C(NC4=C3C=CC(=C4)C(=O)N(C)C)O + Nc1nc2[nH]cc(CCc3ccc(C(=O)N[C@@H](CCC(=O)O)C(=O)O)cc3)c2c(=O)[nH]1 [Pemetrexed] (partner 0.2 µM)
In outline: (§1)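 Lung cancer cell lines in 1536-well plates were dosed by pin tool the day after seeding, either with one drug alone or with a fixed anchor-drug dose plus five library-drug doses (not always all listed) in √10 steps. After 5 days, cells were fixed and their nuclei stained in one step (final 0.05% Triton X-100, 1% formaldehyde, 1 ug/ml Hoechst), then counted on 4× images. Relative viability is the nuclei count in treated wells divided by that in vehicle wells. Values are medians of duplicate plates.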

Compound in experiment [2]: CN(C)CC1=CC(=CC=C1)N=C(C2=CC=CC=C2)C3=C(NC4=C3C=CC(=C4)C(=O)N(C)C)O + CC1(C)CCC(c2ccc(Cl)cc2)=C(CN2CCN(c3ccc(C(=O)NS(=O)(=O)c4ccc(N[C@H](CCN5CCOCC5)CSc5ccccc5)c(S(=O)(=O)C(F)(F)F)c4)cc3)CC2)C1 [Navitoclax] (partner 0.5 µM)
In outline:
as §1

Compound in experiment [3]: CN(C)CC1=CC(=CC=C1)N=C(C2=CC=CC=C2)C3=C(NC4=C3C=CC(=C4)C(=O)N(C)C)O + CC(=O)Nc1cccc(-n2c(=O)n(C3CC3)c(=O)c3c(Nc4ccc(I)cc4F)n(C)c(=O)c(C)c32)c1 [Trametinib] (partner 0.02 µM)
In outline: as §1

Compound in experiment [4]: CN(C)CC1=CC(=CC=C1)N=C(C2=CC=CC=C2)C3=C(NC4=C3C=CC(=C4)C(=O)N(C)C)O + N=C(N)NC(=N)NCCc1ccccc1 [Phenformin] (partner 250 µM)
In outline:
as §1

Experimental findings from the supplement of paper PMC10307832 are described below.

On to NCI-H3122, for which the relative viability came to 0.19 in experiment [1] (first compound 0.08 µM); 0.207 in experiment [1] (first compound 0.253 µM); 0.196 in experiment [1] (first compound 0.8 µM); 0.191 in experiment [1] (first compound 2.53 µM); 0.186 in experiment [1] (first compound 8 µM); 1.01 in experiment [2] (first compound 0.08 µM). The relative viability in experiment [2] (first compound 0.253 µM) turned out to be 1.01; in experiment [2] (first compound 0.8 µM), 1.06; in experiment [2] (first compound 2.53 µM) it was 1.03; in experiment [2] (first compound 8 µM), 1.04; in experiment [3] (first compound 0.08 µM), 0.225; in experiment [3] (first compound 0.253 µM), 0.203. Also, the relative viability in experiment [3] (first compound 0.8 µM) came to 0.235; in experiment [3] (first compound 2.53 µM) it was 0.245; in experiment [3] (first compound 8 µM), 0.243; in experiment [4] (first compound 0.08 µM), 0.386; in experiment [4] (first compound 0.253 µM) it was 0.38; in experiment [4] (first compound 0.8 µM), 0.391. Moreover, the figures for the relative viability in experiment [4] (first compound 2.53 µM) and in experiment [4] (first compound 8 µM) were 0.302 and 0.354, respectively.

Consider NCI-H23, for which the relative viability in experiment [1] (first compound 0.253 µM) was 0.718; in experiment [1] (first compound 0.8 µM), 0.962; in experiment [1] (first compound 2.53 µM), 0.776; in experiment [1] (first compound 8 µM) it was 0.596; in experiment [2] (first compound 0.08 µM), 0.9; in experiment [2] (first compound 0.253 µM) it was 0.911. For the same cell line, the relative viability in experiment [2] (first compound 0.8 µM) is 0.884; in experiment [2] (first compound 2.53 µM) it was 0.99; in experiment [2] (first compound 8 µM) it was 0.732; in experiment [3] (first compound 0.253 µM), 0.503; in experiment [3] (first compound 0.8 µM) it was 0.357; in experiment [3] (first compound 2.53 µM), 0.404. Moreover, the relative viability in experiment [3] (first compound 8 µM) was determined as 0.339; in experiment [4] (first compound 0.08 µM), 0.796; in experiment [4] (first compound 0.253 µM) it was 0.781; in experiment [4] (first compound 0.8 µM), 0.787; in experiment [4] (first compound 2.53 µM) it was 0.764; in experiment [4] (first compound 8 µM), 0.691.

In the case of HOP-62, the relative viability is 0.264 in experiment [1] (first compound 0.08 µM); 0.248 in experiment [1] (first compound 0.253 µM); 0.438 in experiment [1] (first compound 0.8 µM); 0.344 in experiment [1] (first compound 2.53 µM); 0.322 in experiment [1] (first compound 8 µM); 1.05 in experiment [2] (first compound 0.08 µM). Also, the relative viability in experiment [2] (first compound 0.253 µM) was found to be 0.94; in experiment [2] (first compound 0.8 µM), 1.03; in experiment [2] (first compound 2.53 µM), 1.04; in experiment [2] (first compound 8 µM), 0.977; in experiment [3] (first compound 0.08 µM), 0.363; in experiment [3] (first compound 0.253 µM) it was 0.361. Besides, the relative viability in experiment [3] (first compound 0.8 µM) amounted to 0.391; in experiment [3] (first compound 2.53 µM), 0.362; in experiment [3] (first compound 8 µM), 0.339; in experiment [4] (first compound 0.08 µM), 0.7; in experiment [4] (first compound 0.253 µM), 0.64; in experiment [4] (first compound 0.8 µM), 0.677. Moreover, the results for the relative viability in experiment [4] (first compound 2.53 µM) and in experiment [4] (first compound 8 µM) were 0.601 and 0.629, respectively.

As for ChaGo-K-1, the relative viability in experiment [1] (first compound 0.08 µM) is 0.251; in experiment [1] (first compound 0.253 µM), 0.267; in experiment [1] (first compound 0.8 µM), 0.259; in experiment [1] (first compound 2.53 µM), 0.258; in experiment [1] (first compound 8 µM), 0.265; in experiment [2] (first compound 0.08 µM), 1.16. The relative viability in experiment [2] (first compound 0.253 µM) was found to be 1.17; in experiment [2] (first compound 0.8 µM) it was 1.27; in experiment [2] (first compound 8 µM) it was 1; in experiment [3] (first compound 0.08 µM) it was 0.857; in experiment [3] (first compound 0.253 µM) it was 0.89; in experiment [3] (first compound 0.8 µM), 0.882. The relative viability in experiment [3] (first compound 2.53 µM) stood at 0.835; in experiment [3] (first compound 8 µM), 0.808; in experiment [4] (first compound 0.08 µM), 0.495; in experiment [4] (first compound 0.253 µM), 0.507; in experiment [4] (first compound 0.8 µM), 0.479; in experiment [4] (first compound 2.53 µM), 0.436. In experiment [4] (first compound 8 µM), the relative viability turned out to be 0.433.

For the cell line NCI-H441, the relative viability stood at 0.264 in experiment [1] (first compound 0.08 µM); 0.274 in experiment [1] (first compound 0.253 µM); 0.237 in experiment [1] (first compound 0.8 µM); 0.258 in experiment [1] (first compound 2.53 µM); 0.291 in experiment [1] (first compound 8 µM); 0.632 in experiment [2] (first compound 0.08 µM). Further, the relative viability in experiment [2] (first compound 0.253 µM) was 0.391; in experiment [2] (first compound 0.8 µM), 0.619; in experiment [2] (first compound 2.53 µM), 0.647; in experiment [2] (first compound 8 µM), 0.565; in experiment [3] (first compound 0.08 µM), 0.495; in experiment [3] (first compound 0.253 µM), 0.508. Moreover, the relative viability is 0.354 in experiment [3] (first compound 0.8 µM); 0.444 in experiment [3] (first compound 2.53 µM); 0.462 in experiment [3] (first compound 8 µM); 0.828 in experiment [4] (first compound 0.08 µM); 0.816 in experiment [4] (first compound 0.253 µM); 0.784 in experiment [4] (first compound 0.8 µM). Also, the relative viability in experiment [4] (first compound 2.53 µM) was found to be 0.878; in experiment [4] (first compound 8 µM) it was 0.886.

In the case of LC-2-ad, the relative viability was 0.275 in experiment [1] (first compound 0.08 µM); 0.263 in experiment [1] (first compound 0.253 µM); 0.275 in experiment [1] (first compound 0.8 µM); 0.288 in experiment [1] (first compound 2.53 µM); 0.277 in experiment [1] (first compound 8 µM); 0.456 in experiment [2] (first compound 0.08 µM). Moreover, the relative viability in experiment [2] (first compound 0.253 µM) was 0.515; in experiment [2] (first compound 0.8 µM), 0.429; in experiment [2] (first compound 2.53 µM) it was 0.515; in experiment [2] (first compound 8 µM), 0.338; in experiment [3] (first compound 0.08 µM), 0.86; in experiment [3] (first compound 0.253 µM) it was 0.885. Further, the relative viability in experiment [3] (first compound 0.8 µM) came to 0.893; in experiment [3] (first compound 2.53 µM) it was 0.866; in experiment [3] (first compound 8 µM), 0.841; in experiment [4] (first compound 0.08 µM), 0.623; in experiment [4] (first compound 0.253 µM), 0.582; in experiment [4] (first compound 0.8 µM), 0.563. The relative viability was found to be 0.526 in experiment [4] (first compound 2.53 µM) and 0.575 in experiment [4] (first compound 8 µM).

Regarding HCC-78, the relative viability was found to be 0.639 in experiment [1] (first compound 0.08 µM); 0.873 in experiment [1] (first compound 0.253 µM); 0.857 in experiment [1] (first compound 0.8 µM); 0.918 in experiment [1] (first compound 2.53 µM); 0.859 in experiment [1] (first compound 8 µM); 0.894 in experiment [2] (first compound 0.08 µM). For the same cell line, the relative viability in experiment [2] (first compound 0.253 µM) was determined as 0.734; in experiment [2] (first compound 0.8 µM), 0.807; in experiment [2] (first compound 2.53 µM), 0.75; in experiment [2] (first compound 8 µM) it was 0.769; in experiment [3] (first compound 0.08 µM), 0.79; in experiment [3] (first compound 0.253 µM), 0.708. The relative viability was 0.868 in experiment [3] (first compound 0.8 µM); 0.785 in experiment [3] (first compound 2.53 µM); 0.65 in experiment [3] (first compound 8 µM); 0.642 in experiment [4] (first compound 0.08 µM); 0.812 in experiment [4] (first compound 0.253 µM); 0.675 in experiment [4] (first compound 0.8 µM). Besides, the relative viability in experiment [4] (first compound 2.53 µM) came out at 0.698; in experiment [4] (first compound 8 µM), 0.738.
